# Paper PMC3914206
# Assays:
# Type in all cases: binding
# Settings in all cases: Compound Concentration 10 µM
# panel of 442 kinases [1] = biological target: T1, panel of 442 kinases (Homo sapiens, UniProt Q04759)
# T1 construct: purchased KINOMEscan
# Excerpt: (§1) We assessed the selectivity of members of this scaffold using the KINOMEscan methodology across a near comprehensive panel of 442 kinases [[18,27]].
# panel of 442 kinases [2] = biological target: T2, panel of 442 kinases (Homo sapiens, UniProt P49841)
# T2 construct: purchased KINOMEscan
# Excerpt: as §1
# panel of 442 kinases [3] = biological target: T3, panel of 442 kinases (Homo sapiens, UniProt Q8IY84)
# T3 construct: purchased KINOMEscan
# Excerpt: as §1
# panel of 442 kinases [4] = biological target: T4, panel of 442 kinases (Homo sapiens, UniProt Q00537)
# T4 construct: purchased KINOMEscan
# Excerpt: as §1
# T4 sequence (Q00537 whole entry): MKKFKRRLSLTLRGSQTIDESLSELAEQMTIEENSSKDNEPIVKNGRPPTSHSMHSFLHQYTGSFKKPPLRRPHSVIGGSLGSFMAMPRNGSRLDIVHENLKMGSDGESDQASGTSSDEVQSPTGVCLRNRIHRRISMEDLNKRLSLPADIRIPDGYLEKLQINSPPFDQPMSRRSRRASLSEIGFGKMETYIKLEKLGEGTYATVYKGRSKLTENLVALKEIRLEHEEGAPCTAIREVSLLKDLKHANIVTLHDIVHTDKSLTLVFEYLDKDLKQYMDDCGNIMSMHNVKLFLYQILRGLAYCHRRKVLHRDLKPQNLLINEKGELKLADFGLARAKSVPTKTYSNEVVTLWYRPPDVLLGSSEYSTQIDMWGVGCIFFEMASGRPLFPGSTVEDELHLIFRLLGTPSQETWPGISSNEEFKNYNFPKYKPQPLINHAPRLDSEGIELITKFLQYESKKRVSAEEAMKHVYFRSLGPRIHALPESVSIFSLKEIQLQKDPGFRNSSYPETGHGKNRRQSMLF
# T1 sequence (Q04759 whole entry): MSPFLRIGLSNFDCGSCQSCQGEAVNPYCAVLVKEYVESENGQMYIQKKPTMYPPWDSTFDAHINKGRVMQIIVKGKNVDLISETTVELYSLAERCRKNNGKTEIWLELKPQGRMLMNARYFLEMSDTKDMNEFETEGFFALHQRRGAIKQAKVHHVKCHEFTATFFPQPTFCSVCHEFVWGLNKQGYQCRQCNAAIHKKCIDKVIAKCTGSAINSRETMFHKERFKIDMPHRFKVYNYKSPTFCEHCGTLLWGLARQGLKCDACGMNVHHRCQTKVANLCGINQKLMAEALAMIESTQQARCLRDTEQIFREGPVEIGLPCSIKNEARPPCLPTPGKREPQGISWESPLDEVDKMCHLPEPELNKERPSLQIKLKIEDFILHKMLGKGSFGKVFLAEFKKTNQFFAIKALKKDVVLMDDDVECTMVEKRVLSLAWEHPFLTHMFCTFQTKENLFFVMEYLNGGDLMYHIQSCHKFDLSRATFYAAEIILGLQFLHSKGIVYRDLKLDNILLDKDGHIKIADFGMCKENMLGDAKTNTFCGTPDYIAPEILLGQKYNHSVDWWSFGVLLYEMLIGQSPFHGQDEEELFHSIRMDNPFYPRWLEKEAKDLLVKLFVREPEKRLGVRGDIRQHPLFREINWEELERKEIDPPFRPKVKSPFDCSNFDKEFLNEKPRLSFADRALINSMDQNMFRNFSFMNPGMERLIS
# T3 sequence (Q8IY84 whole entry): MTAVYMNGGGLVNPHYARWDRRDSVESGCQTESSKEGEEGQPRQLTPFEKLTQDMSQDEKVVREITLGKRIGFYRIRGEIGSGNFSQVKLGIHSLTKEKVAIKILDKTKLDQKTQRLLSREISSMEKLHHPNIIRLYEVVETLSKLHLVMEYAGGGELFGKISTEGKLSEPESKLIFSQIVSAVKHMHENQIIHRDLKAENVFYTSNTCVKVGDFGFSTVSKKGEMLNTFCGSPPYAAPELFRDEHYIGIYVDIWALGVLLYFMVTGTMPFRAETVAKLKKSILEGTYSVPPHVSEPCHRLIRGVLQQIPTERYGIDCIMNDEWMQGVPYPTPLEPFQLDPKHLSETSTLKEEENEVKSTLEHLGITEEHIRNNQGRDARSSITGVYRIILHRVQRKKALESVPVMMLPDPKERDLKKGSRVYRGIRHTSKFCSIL
# T2 sequence (P49841 whole entry): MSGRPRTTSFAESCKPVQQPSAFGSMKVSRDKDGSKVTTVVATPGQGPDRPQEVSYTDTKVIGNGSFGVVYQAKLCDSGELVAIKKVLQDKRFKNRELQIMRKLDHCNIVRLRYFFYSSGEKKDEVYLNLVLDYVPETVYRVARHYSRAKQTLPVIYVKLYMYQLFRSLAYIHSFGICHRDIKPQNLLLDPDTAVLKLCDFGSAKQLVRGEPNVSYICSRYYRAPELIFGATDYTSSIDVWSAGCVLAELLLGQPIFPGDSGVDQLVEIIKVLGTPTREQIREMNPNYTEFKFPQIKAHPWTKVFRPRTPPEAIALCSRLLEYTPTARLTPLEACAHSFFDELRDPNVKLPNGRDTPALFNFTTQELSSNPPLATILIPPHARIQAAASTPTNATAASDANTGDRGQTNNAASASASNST
smiles,measurement,setting,value
COc1cc(C(=O)N2CCC(N3CCN(C)CC3)CC2)ccc1Nc1ncc2c(n1)N(C)c1ccccc1C(=O)N2C [15 (LRRK2-IN-1)],KINOMEscan: PRKCQ,panel of 442 kinases [1],100
same,KINOMEscan: GSK3B,panel of 442 kinases [2],88
same,KINOMEscan: NIM1,panel of 442 kinases [3],100
same,KINOMEscan: PCTK2,panel of 442 kinases [4],83
COc1cc(C(=O)N2CCC(N3CCN(C)CC3)CC2)ccc1Nc1ncc2c(n1)N1CCc3cccc(c31)C(=O)N2C [Compound 24],KINOMEscan: GSK3B,panel of 442 kinases [2],72
same,KINOMEscan: PCTK2,panel of 442 kinases [4],95
"COc1cc(C(=O)N2CCC(N3CCN(C)CC3)CC2)ccc1Nc1ncc2c(n1)N(C1CCCC1)c1ccccc1C(=O)N2C [Compound 25, 11-cyclopentyl-2-((2-methoxy-4-(4-(4-methylpiperazin-1-yl)piperidine-1-carbonyl)phenyl)amino)-5-methyl-5H-benzo[e]pyrimido[5,4-b][1,4]diazepin-6(11H)-one]",KINOMEscan: PRKCQ,panel of 442 kinases [1],100
same,KINOMEscan: GSK3B,panel of 442 kinases [2],80
same,KINOMEscan: NIM1,panel of 442 kinases [3],100
same,KINOMEscan: PCTK2,panel of 442 kinases [4],80
CCOc1cc(C(=O)N2CCC(N3CCN(C)CC3)CC2)ccc1Nc1ncc2c(n1)N(C1CCCC1)c1ccccc1C(=O)N2C [Compound 26],KINOMEscan: PRKCQ,panel of 442 kinases [1],100
same,KINOMEscan: GSK3B,panel of 442 kinases [2],98
same,KINOMEscan: NIM1,panel of 442 kinases [3],100
same,KINOMEscan: PCTK2,panel of 442 kinases [4],100
